Reference: patent US10920238B2, “Winter aconite fatty acid elongase and uses thereof in the production of fatty acids” (National Research Council of Canada, priority 2016, dated 2021)

How the values were obtained:
EhELO1 = test: Elongation efficiency on fatty acid substrates by EhELO1 expressed in Saccharomyces cerevisiae (in vivo activity assay); assay type: cell-based, Eranthis hyemalis; conditions: for Elongation efficiency (%): yeast INVSc1 transformant with EhELO1/pHVX2, 0.25 mM free fatty acid substrate with tergitol, 20° C. for 2 days, calculated from peak area of FAMEs, means of four replicates with standard deviation; for Substrate preference of EhELO1 (in words): yeast transformant expressing EhELO1, comparison among supplied substrates
Protocol: To define the diverse activity of the discovered elongase (EhELO1) from winter aconite, a variety of possible common fatty acids and unusual fatty acids that differ in the number and position of double bonds as well as in the chain length was exogenously supplied to the yeast transformant expressing the elongase EhELO1 for in vivo activity assays. The conversion of substrates to products was measured and used for the comparison of elongation efficiencies among fatty acid substrates.
The EhELO1 coding sequence was released from plasmid, EhELO1/pYES2.1 and sub-cloned into another yeast expression vector pHVX2 under the control of phosphoglycerate kinase 1 constitutive promoter, giving a plasmid EhELO1/pHVX2. The recombinant plasmid was transformed into Saccharomyces cerevisiae INVSc1. The yeast transformants with either EhELO1 or empty vector pHVX2 were grown at 30° C. for 1 day. The overnight cultures were diluted to an OD600 of 0.1 in the same medium supplemented with or without 0.25 mM of various free fatty acids in the presence of tergitol. After incubation at 20° C. for 2 days, yeast cells were harvested and washed once with tergitol and once with water. Total fatty acids in yeast transformants were converted to FAMES by an acid transmethylation process and analyzed by gas chromatography.

CtELO6 = test: Elongation of fatty acid by elongase CtELO6 studied in yeast, Saccharomyces cerevisiae; assay type: cell-based, Conidiobolus thromboides
From the text: Accordingly, it is expected that the production of 20:2:11,14 by CtELO6 in plants may provide increased substrate for EhELO1, providing enhanced production of DDA in plants expressing both CtELO6 and EhELO1.

Compound | Elongation efficiency (%) (EhELO1) | Substrate preference of EhELO1 (in words) (EhELO1) | elongation efficiency (CtELO6)
CCC=CCC=CCC=CCC=CCCCCCCCCC(=O)O [22:4-10, 13, 16, 19] | 32.7 ± 0.49 | – | –
CCCCCC/C=C\CCCCCCCCCC(=O)O [18:1-11] | 49.4 ± 1.79 | highly active | –
CC/C=C\C/C=C\C/C=C\CCCCCCCCCCCC(=O)O [22:3-13, 16, 19, docosatrienoic acid] | 9.7 ± 0.13 | – | –
CCCCC/C=C\C/C=C\C/C=C\C/C=C\CCCC(=O)O [20:4-5,8, 11, 14, arachidonic acid] | 36.2 ± 0.92 | – | –
CC/C=C\C/C=C\C/C=C\C/C=C\C/C=C\CCCCCC(=O)O [22:5-7, 10, 13, 16, 19] | 31.9 ± 0.19 | – | –
CC/C=C\C/C=C\C/C=C\CCCCCCCCCC(=O)O [20:3-11, 14, 17] | 61.8 ± 0.35 | most preferred | –
CCCCC/C=C\C/C=C\CCCCCCCCCC(=O)O [20:2-11, 14, eicosadienoic acid] | 48.5 ± 2.12 | – | –
CC/C=C\C/C=C\C/C=C\C/C=C\CCCCC(=O)O [18:4-6,9, 12, 15] | 25.0 ± 0.37 | – | –
CC/C=C\C/C=C\C/C=C\C/C=C\C/C=C\C/C=C\CCC(=O)O [22:6-4,7, 10, 13, 16, 19, docosahexaenoic acid] | 10.8 ± 0.52 | – | –
CCCCC/C=C\C/C=C\CCCCCCCCCCCC(=O)O [22:2-13, 16, docosadienoic acid] | 3.4 ± 0.17 | – | –
CC/C=C\C/C=C\C/C=C\C/C=C\CCCCCCC(=O)O [20:4-8, 11, 14, 17] | 50.3 ± 0.53 | – | –
CCCCCCCC/C=C\CCCCCCCC(=O)O [18:1-9] | 3.3 ± 0.07 | – | –
CCCCC/C=C\C/C=C\C/C=C\CCCCC(=O)O [18:3-6,9, 12, γ-linolenic acid] | 28.3 ± 1.95 | – | –
CCCCCCCC/C=C\CCCCCCCCCCCC(=O)O [22:1-13] | 0.0 ± 0.0 | – | –
CCCCC/C=C\C/C=C\C/C=C\CCCCCCC(=O)O [20:3-8, 11, 14] | 46.4 ± 1.44 | – | –
CCCCC/C=C\C/C=C\CCCCCCCC(=O)O [18:2-9, 12, linoleic acid] | 44.6 ± 3.26 | – | more than 20%
CCCCC/C=C\C/C=C\C/C=C\C/C=C\CCCCCC(=O)O [22:4-7, 10, 13, 16] | 20.5 ± 0.37 | – | –
CC/C=C\C/C=C\C/C=C\CCCCCCCC(=O)O [18:3-9, 12, 15, linolenic acid] | 54.7 ± 0.83 | – | –
CC/C=C\C/C=C\C/C=C\C/C=C\C/C=C\CCCC(=O)O [20:5-5,8, 11, 14, 17, eicosapentaenoic acid] | 39.8 ± 0.43 | – | –
CCCCCCCCC=CCCCCCCCCCC(=O)O [20:1-11] | 12.6 ± 0.23 | – | –
